The target of one data set is JNK3 (Homo sapiens, UniProt P53779). In words: JNK3 kinase (intrinsic ATPase, Kinase-Glo) assay. The note with it: for Kd: Table 3a, read-out: Kd JNK3. It is filed as biochemical. For orientation: Kinase-Glo reads ATP consumption through a luciferase reaction.
A further data set deals with JNK1 (Homo sapiens, UniProt P45983). In words: JNK1 kinase (intrinsic ATPase, Kinase-Glo) assay. It is filed as biochemical. The procedure: JNK1, JNK2, and JNK3 hydrolyze ATP to ADP without any peptide substrates. This allows a very robust and fast endpoint assay where the remaining concentration of ATP is measured (BMG ClarioStar Plus plate reader) using the Kinase-Glo Assay kit from Promega (V6711). A luminescence signal is measured, which is produced by the catalytic conversion of beetle luciferin to oxyluciferin by luciferase. Potential inhibition of luciferase (i.e., false negatives) is easily detected, because assays without kinase are always included, and less ATP than is present in this control reaction could also indicate an inhibition of luciferase, which can be excluded by a counter screen with only luciferase.
To mitigate violation of the linear initial velocity principle, which is a problem in end-point assays when doing dose-responses, the enzyme concentration was carefully optimized, in a total assay volume of 25 μL. […] The kinase reaction was done for 30 or 60 min at 30° C., and detection of leftover ATP was measured according to Promega's protocol. […] Fractional activities were obtained from normalized data. Non-linear regression (GraphPad Prism7) and a modified Morrison equation for tight binding was used to determine apparent Ki values for inhibitors, assuming no particular mode of inhibition. An orthogonal binding assay (LanthaScreen) was outsourced to ThermoFisher Scientific's SelectScreen Services to determine IC50 values.

Another data set concerns the target JNK2 (Homo sapiens, UniProt P45984). In words: JNK2 kinase (intrinsic ATPase, Kinase-Glo) assay. The note with it: for Kd: Table 3a, read-out: Kd JNK2. The format is biochemical.
Data set [1] in a line: In vitro metabolism in mouse liver microsomes. Particulars: for half-life: mouse, microsomes. How it is done:
(§1) The target product profile seeks to deliver JNK inhibitor as a once daily oral administration. To prioritize compounds for further development, in vitro metabolism of several CDD JNK inhibitors were determined to approximate the plasma half-life and the rate of metabolism of the compounds in vivo.
In general terms: Microsomes from liver hold many membrane-bound enzymes, among them those of drug oxidation.

The nature of data set [2]: In vitro metabolism in human liver microsomes. Particulars: for half-life: human, microsomes. How it is done:
as §1

Consider 21 molecules from patent US20260294922A1, “Inhibitors of JUN N-Terminal Kinases (JNK1, JNK2, and/or JNK3) and Mitogen-Activated Protein Kinases (MAPK8, MAPK9, and/or MAPK10) and Methods of Using Same” (Baylor College of Medicine, priority 2023, published 2026).

In brackets after ≈: the same amount, converted by molar mass.

Chain of JNK3 (P53779 whole entry): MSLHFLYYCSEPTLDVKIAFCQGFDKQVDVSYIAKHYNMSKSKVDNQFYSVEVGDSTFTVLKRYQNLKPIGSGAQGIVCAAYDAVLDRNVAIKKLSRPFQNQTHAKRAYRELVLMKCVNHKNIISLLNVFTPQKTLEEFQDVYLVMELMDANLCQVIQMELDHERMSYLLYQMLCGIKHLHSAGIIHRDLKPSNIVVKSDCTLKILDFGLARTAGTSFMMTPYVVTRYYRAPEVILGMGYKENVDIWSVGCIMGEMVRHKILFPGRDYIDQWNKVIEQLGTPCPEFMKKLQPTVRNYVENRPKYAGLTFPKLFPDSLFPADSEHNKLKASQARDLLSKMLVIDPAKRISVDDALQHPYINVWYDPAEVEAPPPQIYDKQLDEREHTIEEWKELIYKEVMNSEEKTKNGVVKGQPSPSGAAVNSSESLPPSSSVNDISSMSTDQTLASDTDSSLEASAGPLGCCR
Chain of JNK1 (P45983 whole entry): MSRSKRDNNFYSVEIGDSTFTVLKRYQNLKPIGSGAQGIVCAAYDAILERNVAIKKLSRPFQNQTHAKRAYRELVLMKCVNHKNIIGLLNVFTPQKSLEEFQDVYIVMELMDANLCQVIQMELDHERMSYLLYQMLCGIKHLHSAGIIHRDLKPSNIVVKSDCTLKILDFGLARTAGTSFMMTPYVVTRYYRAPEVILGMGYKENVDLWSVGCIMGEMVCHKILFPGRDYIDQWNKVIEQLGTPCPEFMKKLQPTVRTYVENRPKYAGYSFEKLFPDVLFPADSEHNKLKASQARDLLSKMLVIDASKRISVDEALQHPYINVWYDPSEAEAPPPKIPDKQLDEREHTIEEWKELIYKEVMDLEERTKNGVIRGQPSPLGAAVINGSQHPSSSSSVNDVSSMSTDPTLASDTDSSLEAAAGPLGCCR
Chain of JNK2 (P45984 whole entry): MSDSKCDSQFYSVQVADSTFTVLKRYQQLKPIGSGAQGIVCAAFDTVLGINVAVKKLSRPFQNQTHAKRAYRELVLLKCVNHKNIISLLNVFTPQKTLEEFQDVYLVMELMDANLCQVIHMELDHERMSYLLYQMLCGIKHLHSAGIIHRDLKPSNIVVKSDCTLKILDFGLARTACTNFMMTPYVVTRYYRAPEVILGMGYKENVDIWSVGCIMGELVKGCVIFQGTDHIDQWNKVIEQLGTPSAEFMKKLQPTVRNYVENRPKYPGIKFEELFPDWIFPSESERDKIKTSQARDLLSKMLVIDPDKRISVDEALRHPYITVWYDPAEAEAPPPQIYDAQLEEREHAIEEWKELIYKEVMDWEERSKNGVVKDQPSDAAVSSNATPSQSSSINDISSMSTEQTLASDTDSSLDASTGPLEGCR

Usually Kd stands for the concentration at which binding is half-saturated. One may read the half-life as the time needed for the level to fall by half in the phase considered. For orientation: solubility means how much of the substance goes into solution per volume. For `O=C(c1cc2c(-c3cnc4[nH]ccc4c3)cccc2s1)N1CCN(c2ccccc2)C(=O)C1` [CDD-3116, 4-(4-(1H-pyrrolo[2,3-b]pyridin-5-yl)benzo[b]thiophene-2-carbonyl)-1-phenylpiperazin-2-one], the Kd at JNK3 is 114 ± 7 nM; on JNK1 it was 54.5 ± 5.4 nM; on JNK2 it was 447 ± 65 nM. Also, the results for the half-life in data set [1] and in data set [2] were 0.567 h and 0.8 h, respectively. The solubility in “Solubility” worked out at 4.2 µM (≈ 1.9 µg/mL).
For `O=C(Nc1ccc(O)c(C(=O)NC2COC2)c1)c1cc2c(-c3cnc4[nH]ccc4c3)cccc2s1` [CDD-3112, N-(4-hydroxy-3-(oxetan-3-ylcarbamoyl)phenyl)-4-(1H-pyrrolo[2,3-b]pyridin-5-yl)benzo[b]thiophene-2-carboxamide], the values for the Kd on JNK3, on JNK1 and at JNK2 were 6.4 ± 0.6 nM, 2.84 ± 0.49 nM and 13.5 ± 0.8 nM, respectively. Moreover, the half-life in data set [1] stood at 2.83 h; in data set [2] it was 1.65 h. In the data set “Solubility”, this molecule yielded a solubility of 1.6 µM (≈ 0.775 µg/mL).
With `COc1ccc(NC(=O)c2cc3c(-c4cnc5[nH]ccc5c4)cccc3s2)cc1` [CDD-2629, N-(4-methoxyphenyl)-4-(1H-pyrrolo[2,3-b]pyridin-5-yl)benzo[b]thiophene-2-carboxamide], the Kd at JNK3 is 9.9 ± 1.3 nM; on JNK1 it was 7.8 ± 1.4 nM; on JNK2, 15.4 ± 1.4 nM.
Regarding `CCN(CC)Cc1cc(NC(=O)c2cc3c(-c4cnc5[nH]ccc5c4)cccc3s2)ccc1O` [CDD-3117, N-(3-((diethylamino)methyl)-4-hydroxyphenyl)-4-(1H-pyrrolo[2,3-b]pyridin-5-yl)benzo[b]thiophene-2-carboxamide], the dissociation constant (Kd) on JNK3 turned out to be 2.9 ± 0.4 nM; on JNK1, 0.9 ± 0.2 nM; at JNK2, 2.1 ± 0.3 nM. Besides, the half-life in data set [1] came out at 1.9 h; in data set [2] it was 0.517 h. The same molecule came in with a solubility in “Solubility” of 3.4 µM (≈ 1.6 µg/mL).
With `CN(C)C(=O)c1cccc(NC(=O)c2cc3c(-c4cnc5[nH]ccc5c4)cccc3s2)c1` [CDD-2632, N-(3-(dimethylcarbamoyl)phenyl)-4-(1H-pyrrolo[2,3-b]pyridin-5-yl)benzo[b]thiophene-2-carboxamide], the dissociation constant (Kd) at JNK3 is 5.82 ± 0.92 nM; on JNK1, 4.91 ± 0.9 nM; at JNK2, 3.5 ± 1.4 nM. In addition, in “Solubility”, the solubility turned out to be 0.6 µM (≈ 0.264 µg/mL).
Turning to `O=C(Nc1ccc2c(c1)C(=O)NC2)c1cc2c(-c3cnc4[nH]ccc4c3)cccc2s1` [CDD-3115, N-(3-oxoisoindolin-5-yl)-4-(1H-pyrrolo[2,3-b]pyridin-5-yl)benzo[b]thiophene-2-carboxamide], the dissociation constant (Kd) is 4.6 ± 0.7 nM at JNK3, 1.5 ± 0.2 nM at JNK1 and 6.3 ± 0.6 nM at JNK2. Besides, the half-life in data set [1] is 1.43 h; in data set [2] it was 14.8 h. In “Solubility”, this molecule yielded a solubility of 1.4 µM (≈ 0.594 µg/mL).
Consider `CN(C)C(=O)c1cc(NC(=O)c2cc3c(-c4cnc5[nH]ccc5c4)cncc3s2)ccc1O` [CDD-3111, N-(3-(dimethylcarbamoyl)-4-hydroxyphenyl)-4-(1H-pyrrolo[2,3-b]pyridin-5-yl)thieno[2,3-c]pyridine-2-carboxamide], for which the dissociation constant (Kd) came to 0.32 ± 0.04 nM at JNK3, 0.07 ± 0.05 nM at JNK1 and 0.73 ± 0.1 nM at JNK2. In addition, the half-life came out at 2.07 h in data set [1] and 2.22 h in data set [2]. For the same molecule, the solubility in “Solubility” came to 3.8 µM (≈ 1.74 µg/mL).
In the case of `Cc1nnc2n1-c1ccc(Cl)cc1C(c1ccccc1)=NC2` [Alprazolam, reference compound], in data set [1], the “Predicted half-life, MLM t1/2” value was 3.975 h. Besides, the “Predicted half-life, HLM t1/2” value in data set [2] was 12.63 h.
Take `O=C(Nc1ccccc1)c1cc2c(-c3cnc4[nH]ccc4c3)cccc2s1` [CDD-2631, N-phenyl-4-(1H-pyrrolo[2,3-b]pyridin-5-yl)benzo[b]thiophene-2-carboxamide]: the Kd worked out at 12.7 ± 1.2 nM at JNK3, 5.9 ± 1.1 nM at JNK1 and 27.8 ± 3.6 nM at JNK2.
For `O=C(Nc1ccccc1)c1ccn2ncc(-c3cnc4[nH]ccc4c3)c2c1` [CDD-2485, N-phenyl-3-(1H-pyrrolo[2,3-b]pyridin-5-yl)pyrazolo[1,5-a]pyridine-5-carboxamide], in that order: 0.73 ± 0.02 nM, 0.12 ± 0.09 nM and 0.95 ± 0.16 nM.
With `Cc1sc2c(c1C)C(c1ccc(Cl)cc1)=N[C@@H](CC(=O)OC(C)(C)C)c1nnc(C)n1-2` [JQ1, reference compound], the “Predicted half-life, MLM t1/2” value in data set [1] was 0.193 h. In data set [2], the “Predicted half-life, HLM t1/2” value was 0.275 h.
Consider `O=C(Nc1ccc(O)c(C(=O)NCC2CC2)c1)c1cc2c(-c3cnc4[nH]ccc4c3)cccc2s1` [CDD-3113, N-(3-((cyclopropylmethyl)carbamoyl)-4-hydroxyphenyl)-4-(1H-pyrrolo[2,3-b]pyridin-5-yl)benzo[b]thiophene-2-carboxamide], for which the Kd on JNK3 came out at 10.9 ± 0.7 nM; at JNK1, 10.4 ± 1.4 nM; at JNK2, 40.7 ± 5.5 nM. The half-life in data set [1] was determined as 3.15 h; in data set [2], 4.8 h.
For the molecule `CN(C)CCNC(=O)c1cc(NC(=O)c2cc3c(-c4cnc5[nH]ccc5c4)cccc3s2)ccc1O` [CDD-3086, N-(3-((2-(dimethylamino)ethyl)carbamoyl)-4-hydroxyphenyl)-4-(1H-pyrrolo[2,3-b]pyridin-5-yl)benzo[b]thiophene-2-carboxamide], the Kd at JNK3 was determined as 5.21 ± 0.46 nM; on JNK1 it was 0.67 ± 0.14 nM; on JNK2, 5.98 ± 0.42 nM. Also, the half-life worked out at 1.5 h in data set [1] and 1.68 h in data set [2]. This molecule also had a solubility in the data set “Solubility” of 2 µM (≈ 0.999 µg/mL).
On to `CN(C)C(=O)c1cc(NC(=O)c2cc3c(-c4cnc5[nH]ccc5c4)cccc3s2)ccc1F` [CDD-2730, N-(3-(dimethylcarbamoyl)-4-fluorophenyl)-4-(1H-pyrrolo[2,3-b]pyridin-5-yl)benzo[b]thiophene-2-carboxamide], for which the equilibrium dissociation constant (Kd) on JNK3 was 1.86 ± 0.18 nM; on JNK1, 0.58 ± 0.08 nM; at JNK2, 5.33 ± 0.52 nM. The molecule further had a solubility in “Solubility” of 0.3 µM (≈ 0.138 µg/mL).
As to `O=C(Nc1ccc(C(F)(F)F)cc1)c1ccn2ncc(-c3cnc4[nH]ccc4c3)c2c1` [CDD-2483, 3-(1H-pyrrolo[2,3-b]pyridin-5-yl)-N-(4-(trifluoromethyl)phenyl)pyrazolo[1,5-a]pyridine-5-carboxamide], the Ki on JNK3 is 167 nM; on JNK2, 339 nM. The molecule further had a solubility in the data set “Solubility” of 0.6 µM (≈ 0.253 µg/mL).
As to `CNC(=O)c1cc(NC(=O)c2cc3c(-c4cnc5[nH]ccc5c4)cccc3s2)ccc1O` [CDD-3087, N-(4-hydroxy-3-(methylcarbamoyl)phenyl)-4-(1H-pyrrolo[2,3-b]pyridin-5-yl)benzo[b]thiophene-2-carboxamide], the equilibrium dissociation constant (Kd) was determined as 4.54 ± 0.5 nM on JNK3, 1.96 ± 0.53 nM at JNK1 and 11.4 ± 0.81 nM at JNK2. In addition, the half-life in data set [1] was found to be 1.28 h; in data set [2], 1.97 h. This molecule came in with a solubility in “Solubility” of 0.4 µM (≈ 0.177 µg/mL).
For `N#Cc1cc(NC(=O)c2cc3c(-c4cnc5[nH]ccc5c4)cccc3s2)ccc1O` [CDD-3126, N-(3-cyano-4-hydroxyphenyl)-4-(1H-pyrrolo[2,3-b]pyridin-5-yl)benzo[b]thiophene-2-carboxamide], the Ki on JNK1 (Table 3b, read-out: Ki(app) JNK1) came out at 30 nM. Further, the half-life in data set [1] worked out at 2.4 h; in data set [2], 5.4 h. Moreover, the solubility in the data set “Solubility” is greater than 200 µM.
Consider `CN(C)C(=O)c1cc(NC(=O)c2cc3c(-c4cnc5[nH]ccc5c4)cccc3s2)ccc1OC(F)(F)F` [CDD-2857, N-(3-(dimethylcarbamoyl)-4-(trifluoromethoxy)phenyl)-4-(1H-pyrrolo[2,3-b]pyridin-5-yl)benzo[b]thiophene-2-carboxamide], for which the Kd was determined as 15.7 ± 1.2 nM at JNK3, 11.3 ± 3.4 nM on JNK1 and 49.8 ± 9.7 nM at JNK2. Also, the values for the half-life in data set [1] and in data set [2] were 1.42 h and 2.88 h, respectively.
Regarding `CN(C)C(=O)c1cc(NC(=O)c2cc3c(-c4cnc5[nH]ccc5c4)cccc3s2)ccc1C(F)(F)F` [CDD-2732, N-(3-(dimethylcarbamoyl)-4-(trifluoromethyl)phenyl)-4-(1H-pyrrolo[2,3-b]pyridin-5-yl)benzo[b]thiophene-2-carboxamide], the Kd came to 24.3 ± 1.9 nM at JNK3, 14.3 ± 1.6 nM at JNK1 and 67 ± 11 nM at JNK2.
With `CN(C)CCNC(=O)c1cc2c(-c3cnc4[nH]ccc4c3)cccc2s1` [CDD-3085, N-(2-(dimethylamino)ethyl)-4-(1H-pyrrolo[2,3-b]pyridin-5-yl)benzo[b]thiophene-2-carboxamide], the values for the equilibrium dissociation constant (Kd) at JNK3, on JNK1 and at JNK2 were 30.3 ± 2.7 nM, 13.1 ± 1.2 nM and 42.8 ± 8.3 nM, respectively. Also, the results for the half-life in data set [1] and in data set [2] were 1.17 h and 7.5 h, respectively. Besides, in “Solubility”, the concentration in solution (solubility) came to 170 µM (≈ 62 µg/mL).
With `CN(C)C(=O)c1cc(NC(=O)c2ccc3ncc(-c4cnc5[nH]ccc5c4)n3c2)ccc1O` [CDD-3016], the Kd on JNK3 was 1.48 ± 0.14 nM; on JNK1 it was 0.65 ± 0.15 nM; on JNK2, 5.77 ± 0.8 nM. Also, the figures for the half-life in data set [1] and in data set [2] were 5.3 h and 4.88 h, respectively. The molecule further showed a solubility in the data set “Solubility” of 9.7 µM (≈ 4.27 µg/mL).
